Counter-ions that a name gives are not always drawn. Like-named read-outs stand apart in the source and are kept apart here.
Columns and labels:
HCV gT5a replicon = assay: HCV replicon assay, gT5a; assay type: cell-based, Hepatitis C virus (HCV); conditions: Hepatitis C virus, GT5A, Huh-7, read-out: gT5a, EC50 (pM) mean
Protocol: (§1) The HCV replicon assay was used to determine the antiviral activity of compounds of general formula 2 (test compounds). The test cell line used in the HCV Replicon Assay was the human hepatoma cell line Huh7 incorporating the HCV replicons synthesized by an outside vendor.
(§2) 96-well plates were seeded with cells at a density of 7.5×10^3 cells per well in 50 μl of assay media. The compound stock solution was made up freshly in an assay medium (DMEM 1×, Cellgro; cat. #10-013-CV) as a 2× stock. A total of 11 serial 3-fold dilutions of test compounds were prepared from the 2× stock in the assay media ranging from 20 nM-0.2 pM final concentrations. At least 4 hours after seeding the cells, compound treatment was initiated by adding 50 μl of compound dilution to the plates. The final concentrations of compound therefore ranged from 10 nM to 0.1 pM when diluted 1:1 in culture media. The final DMSO concentration was 0.5%. Cells and inhibitors were incubated for 3 days at 37° C./5% CO2. The media was removed from the plates by gentle tapping. The cells were fixed with 100 μl 1:1 acetone:methanol for 1 minute, washed three times with PBS buffer, and then blocked with 150 μl/well 10% Fetal Bovine Serum (FBS) in PBS for 1 hour at room temperature. The cells were then washed three times with PBS buffer and incubated with 100 μl/well anti-hepatitis C core mAb (Affinity BioReagents; cat. # MA1-080, 1 mg/ml stock diluted 1:4,000 in 10% FBS-PBS) for 2 hours at 37° C. Then, the cells were washed three times with PBS and incubated with 100 μl/well HRP-Goat Anti-Mouse antibody (diluted 1:3.500 in 10% FBS-PBS) for 1 hour at 37° C. The cells were then washed three times with PBS and developed with an OPD solution, 100 μl/well (1 OPD tablet+12 ml citrate/phosphate buffer+5 μl 30% H2O2 per plate), for 30 minutes in the dark at room temperature. The reaction was stopped with 2N H2SO4 (100 μl/well), and the absorbance was measured at A490 X on a Victor^3 V 1420 multilabel counter (Perkin Elmer).

HCV gT1b replicon = assay: HCV replicon assay, gT1b; assay type: cell-based, Hepatitis C virus (HCV); conditions: Hepatitis C virus, GT1B, Huh-7, Huh7 replicon cells, mean value
Protocol: as §1, §2

HCV gT2a replicon = assay: HCV replicon assay, gT2a; assay type: cell-based, Hepatitis C virus (HCV); conditions: Hepatitis C virus, GT2A, Huh-7; Huh7 replicon cells; mean
Protocol: as §1, §2

HCV gT1a replicon = assay: HCV replicon assay, gT1a; assay type: cell-based, Hepatitis C virus (HCV); conditions: Hepatitis C virus, GT1A, Huh-7; Huh7 replicon cells; mean
Protocol: as §1, §2

HCV gT4a replicon = assay: HCV replicon assay, gT4a; assay type: cell-based, Hepatitis C virus (HCV); conditions: Hepatitis C virus, GT4A, Huh-7, read-out: gT4a, EC50 (pM) mean
Protocol: as §1, §2

[1] = Cytotoxicity, cell viability by ATPLite Kit; assay type: cell-based, human; conditions: human, Huh7 cells (human hepatoma cell line), 10% FBS, maximal inhibition, read-out: Cytotox gT1b 10% FBS max. inh.
Protocol: The cytotoxicity of the test compounds was studied in parallel using the same cell line, Huh7. Cell viability was determined using the ATPLite Kit (Perkin-Elmer, Boston, USA), according to manufacturer's instructions. 96-well black/transparent bottom plates were seeded with cells at a density of 7.5×10^3 cells per well in 50 μl medium. After 18 hours, compound treatment was initiated by adding 50 μl of compound dilution into the plates. Each compound dilution was tested in triplicates. The cells and inhibitors were then incubated for 96 hours at 37° C./5% CO2. The plates were washed twice with PBS (0.2 ml/well), and then lysed by adding lysis buffer, 0.05 ml/well (all reagents were included with the ATPLite Kit). After rocking for 5 min on a rocking platform, substrate buffer was added (0.05 ml/well). After additional 5-min incubation, the plates were kept in dark for 10 min, and the luminescence was read using TopCount NXT (Packard, Perkin Elmer). CC50 values for all test compounds were determined using XLfit 4.1 software (Table 2).

HCV gT3a replicon = assay: HCV replicon assay, gT3a; assay type: cell-based, Hepatitis C virus (HCV); conditions: Hepatitis C virus, GT3A
Protocol: as §1, §2

[2] = 10% FBS, read-out: gT1b 10% FBS, EC50 (pM) mean
[3] = 40% NHS, read-out: gT1b 40% NHS, EC50 (pM) mean
[4] = Huh-7, Huh7 replicon cells, mean, read-out: gT3a, EC50 (pM) mean

For `COC(=O)N[C@H](C(=O)N1CCC[C@H]1c1ncc(-c2cc(F)c(C#CC#Cc3cnc([C@@H]4CCCN4C(=O)[C@H](NC(=O)OC)c4ccccc4)[nH]3)c(-c3ccccc3)c2)[nH]1)C(C)C` [2(17)•2HCl, [(S)-1-((S)-2-{5-[5-Fluoro-6-(4-{2-[(S)-1-((R)-2-methoxycarbonylamino-2-phenyl-acetyl)-pyrrolidin-2-yl]-3H-imidazol-4-yl}-buta-1,3-diynyl)-biphenyl-3-yl]-1H-imidazol-2-yl}-pyrrolidine-1-carbonyl)-2-methyl-propyl]-carbamic acid methyl ester dihydrochloride], the EC50 (HCV gT5a replicon) was 26 pM, the EC50 (HCV gT1b replicon; [2]) was 1.36 pM and the EC50 (HCV gT1b replicon; [3]) was 9.18 pM. For the same molecule, the EC50 (HCV gT2a replicon) was 5 pM, the EC50 (HCV gT1a replicon) was 50.8 pM and the EC50 (HCV gT4a replicon) was 11.8 pM. For the same molecule, the inhibition at 96 h [1] was 22% and the EC50 (HCV gT3a replicon; [4]) was 20.1 pM.

Molecule `COC(=O)N[C@H](C(=O)N1CCC[C@H]1c1ncc(-c2cc(C)c(C#CC#Cc3cnc([C@@H]4CCCN4C(=O)[C@H](NC(=O)OC)c4ccccc4)[nH]3)c(-c3ccccc3)c2)[nH]1)C(C)C` [2(18)•2HCl, [(S)-1-((S)-2-{5-[6-(4-{2-[(S)-1-((R)-2-Methoxycarbonylamino-2-phenyl-acetyl)-pyrrolidin-2-yl]-3H-imidazol-4-yl}-buta-1,3-diynyl)-5-methyl-biphenyl-3-yl]-1H-imidazol-2-yl}-pyrrolidine-1-carbonyl)-2-methyl-propyl]-carbamic acid methyl ester dihydrochloride] has an EC50 (HCV gT5a replicon) of 19.2 pM, an EC50 (HCV gT1b replicon; [2]) of 1.89 pM and an EC50 (HCV gT1b replicon; [3]) of 10.9 pM. The EC50 (HCV gT2a replicon) was 3 pM, the EC50 (HCV gT1a replicon) was 124 pM and the EC50 (HCV gT4a replicon) was 9.6 pM. The inhibition at 96 h [1] was 12% and the EC50 (HCV gT3a replicon; [4]) was 26 pM.

Work on `COC(=O)N[C@H](C(=O)N1CCC[C@H]1c1ncc(-c2ccc(C#CC#Cc3cnc([C@@H]4CCCN4C(=O)[C@H](NC(=O)OC)c4ccccc4)[nH]3)c(Oc3ccccc3)c2)[nH]1)C(C)C` [2(19)•2HCl, [(S)-1-((S)-2-{5-[4-(4-{2-[(S)-1-((R)-2-Methoxycarbonylamino-2-phenyl-acetyl)-pyrrolidin-2-yl]-3H-imidazol-4-yl}-buta-1,3-diynyl)-3-phenoxy-phenyl]-1H-imidazol-2-yl}-pyrrolidine-1-carbonyl)-2-methyl-propyl]-carbamic acid methyl ester dihydrochloride] yielded an EC50 (HCV gT5a replicon) of 18.8 pM, an EC50 (HCV gT1b replicon; [2]) of 1.53 pM and an EC50 (HCV gT1b replicon; [3]) of 8.41 pM. It also gave an EC50 (HCV gT2a replicon) of 12.6 pM, an EC50 (HCV gT1a replicon) of 214 pM and an EC50 (HCV gT4a replicon) of 6 pM. It also gave an inhibition at 96 h [1] of 38% and an EC50 (HCV gT3a replicon; Huh-7, read-out: gT3a, EC50 (pM) mean, Huh7 replicon cells) of 40.3 pM.

With `COC(=O)N[C@H](C(=O)N1CCC[C@H]1c1ncc(-c2ccc(C#CC#Cc3cnc([C@@H]4CCCN4C(=O)[C@H](NC(=O)OC)c4ccccc4)[nH]3)c(N(C)c3ccccc3)c2)[nH]1)C(C)C` [2(21)•2HCl, [(S)-1-((S)-2-{5-[4-(4-{2-[(S)-1-((R)-2-Methoxycarbonylamino-2-phenyl-acetyl)-pyrrolidin-2-yl]-3H-imidazol-4-yl}-buta-1,3-diynyl)-3-(methyl-phenyl-amino)-phenyl]-1H-imidazol-2-yl}-pyrrolidine-1-carbonyl)-2-methyl-propyl]-carbamic acid methyl ester trihydrochloride] the EC50 (HCV gT5a replicon) was 26.6 pM, the EC50 (HCV gT1b replicon; [2]) was 1.79 pM and the EC50 (HCV gT1b replicon; [3]) was 14.2 pM. The EC50 (HCV gT2a replicon) was 10.6 pM, the EC50 (HCV gT1a replicon) was 72 pM and the EC50 (HCV gT4a replicon) was 11 pM. The inhibition at 96 h [1] was 14% and the EC50 (HCV gT3a replicon; [4]) was 35.1 pM.

In the case of `COC(=O)N[C@H](C(=O)N1CCC[C@H]1c1ncc(-c2ccc(-c3ccc(-c4cnc([C@@H]5CCCN5C(=O)[C@H](NC(=O)OC)c5ccccc5)[nH]4)cc3)c(-c3ccccc3)c2)[nH]1)C(C)C` [2(22)•2HCl, ((S)-1-{(S)-2-[5-(4-{2-[(S)-1-((R)-2-Methoxycarbonylamino-2-phenyl-acetyl)-pyrrolidin-2-yl]-3H-imidazol-4-yl}-[1,1′;2′,1″]terphenyl-4′-yl)-1H-imidazol-2-yl]-pyrrolidine-1-carbonyl}-2-methyl-propyl)-carbamic acid methyl ester dihydrochloride], the EC50 (HCV gT5a replicon) is reported as 31.3 pM, the EC50 (HCV gT1b replicon; [2]) is reported as 2.58 pM and the EC50 (HCV gT1b replicon; [3]) is reported as 38.8 pM. It also gave an EC50 (HCV gT2a replicon) of 3.9 pM, an EC50 (HCV gT1a replicon) of 117 pM and an EC50 (HCV gT4a replicon) of 9.4 pM. The inhibition at 96 h [1] was 30% and the EC50 (HCV gT3a replicon; [4]) was 16.6 pM.

With `COC(=O)N[C@H](C(=O)N1CCC[C@H]1c1ncc(-c2ccc(-c3ccc(-c4cnc([C@@H]5CCCN5C(=O)[C@H](NC(=O)OC)c5ccccc5)[nH]4)cc3)c(Oc3ccccc3)c2)[nH]1)C(C)C` [2(23)•2HCl, ((S)-1-{(S)-2-[5-(4′-{2-[(S)-1-((R)-2-Methoxycarbonylamino-2-phenyl-acetyl)-pyrrolidin-2-yl]-3H-imidazol-4-yl}-2-phenoxy-biphenyl-4-yl)-1H-imidazol-2-yl]-pyrrolidine-1-carbonyl}-2-methyl-propyl)-carbamic acid methyl ester dihydrochloride] the EC50 (HCV gT5a replicon) was 13.6 pM, the EC50 (HCV gT1b replicon; [2]) was 2.1 pM and the EC50 (HCV gT1b replicon; [3]) was 15.7 pM. For the same molecule, the EC50 (HCV gT2a replicon) was 4.1 pM, the EC50 (HCV gT1a replicon) was 154 pM and the EC50 (HCV gT4a replicon) was 5.4 pM. The inhibition at 96 h [1] was 27% and the EC50 (HCV gT3a replicon; [4]) was 10.3 pM.

For `COC(=O)N[C@H](C(=O)N1CCC[C@H]1c1ncc(-c2ccc(-c3ccc(-c4cnc([C@@H]5CCCN5C(=O)[C@H](NC(=O)OC)c5ccccc5)[nH]4)cc3)c(Sc3ccccc3)c2)[nH]1)C(C)C` [2(24)•2HCl, ((S)-1-{(S)-2-[5-(4′-{2-[(S)-1-((R)-2-Methoxycarbonylamino-2-phenyl-acetyl)-pyrrolidin-2-yl]-3H-imidazol-4-yl}-2-phenylsulfanyl-biphenyl-4-yl)-1H-imidazol-2-yl]-pyrrolidine-1-carbonyl}-2-methyl-propyl)-carbamic acid methyl ester dihydrochloride], the EC50 (HCV gT5a replicon) was 21.6 pM, the EC50 (HCV gT1b replicon; [2]) was 1.33 pM and the EC50 (HCV gT1b replicon; [3]) was 8.02 pM. The EC50 (HCV gT2a replicon) was 4 pM, the EC50 (HCV gT1a replicon) was 557 pM and the EC50 (HCV gT4a replicon) was 8.3 pM. It also gave an inhibition at 96 h [1] of 42% and an EC50 (HCV gT3a replicon; [4]) of 28.5 pM.

With `COC(=O)N[C@H](C(=O)N1CCC[C@H]1c1ncc(C#CC#Cc2ccc(-c3cnc([C@@H]4CCCN4C(=O)[C@H](NC(=O)OC)c4ccccc4)[nH]3)cc2-c2ccccc2)[nH]1)C(C)C` [2(30)•2HCl, [(S)-1-((S)-2-{5-[4-(5-{2-[(S)-1-((R)-2-Methoxycarbonylamino-2-phenyl-acetyl)-pyrrolidin-2-yl]-3H-imidazol-4-yl}-biphenyl-2-yl)-buta-1,3-diynyl]-1H-imidazol-2-yl}-pyrrolidine-1-carbonyl)-2-methyl-propyl]-carbamic acid methyl ester dihydrochloride] the EC50 (HCV gT1b replicon; [2]) was 2.1 pM, the EC50 (HCV gT1b replicon; [3]) was 25.3 pM and the inhibition at 96 h [1] was 33%.

From patent publication US9790207B2, “Pan-genomic inhibitors of NS5A protein encoded by HCV, pharmaceutical compositions, intermediates for inhibitor synthesis, and their synthesis and application methods” (priority 2015, dated 2017)
